PubChem BioAssay AID330 (DTP/NCI, 2004)
Where “and” joins values, the source holds several entries; their conditions need not be identical. Identical values can stand only once. Toxic doses and inconclusive results are not listed. How the source made its calls: active means survival T/C of 150% or more; inactive means T/C below 125% in these data.

System: P388 leukemia ip, CD2F1 mice, survival T/C
Experiment: NCI In Vivo Anticancer Drug Screen. Data for tumor model P388 Leukemia (intraperitoneal) in CD2F1 (CDF1) mice
Details: endpoint: median survival time, higher = longer survival
Outline: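 Mice carrying the transplanted tumor received test compound or vehicle. Survival was recorded in each group, and the value is the treated-group measurement divided by that of the vehicle-treated control group.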

[1] = dose: 50.0 mg/kg/injection, schedule: Q01DX005 (ip), vehicle: Klucel (hydroxypropylcellulose) (HPC)
[2] = dose: 100.0 mg/kg/injection, schedule: Q01DX005 (ip), vehicle: Klucel (hydroxypropylcellulose) (HPC)
[3] = dose: 200.0 mg/kg/injection, schedule: Q01DX005 (ip), vehicle: Klucel (hydroxypropylcellulose) (HPC)
[4] = dose: 50.0 mg/kg/injection, schedule: Q01DX009 (ip), vehicle: saline with Tween-80
[5] = dose: 100.0 mg/kg/injection, schedule: Q01DX009 (ip), vehicle: saline with Tween-80
[6] = dose: 200.0 mg/kg/injection, schedule: Q01DX009 (ip), vehicle: saline with Tween-80
[7] = dose: 12.5 mg/kg/injection, schedule: Q01DX009 (ip), vehicle: saline with Tween-80
[8] = dose: 25.0 mg/kg/injection, schedule: Q01DX009 (ip), vehicle: saline with Tween-80
[9] = dose: 50.0 mg/kg/injection, schedule: Q01DX009 (ip), vehicle: Klucel (hydroxypropylcellulose) (HPC)
[10] = dose: 100.0 mg/kg/injection, schedule: Q01DX009 (ip), vehicle: Klucel (hydroxypropylcellulose) (HPC)

Measured: T/C

Oc1oc(-c2ccccc2)nc1/C=C1/C(Cl)=Nc2ccccc21
inactive: dose: 100.0 mg/kg/injection, schedule: Q01DX001 (ip), vehicle: saline with Tween-80 99 % of control | dose: 200.0 mg/kg/injection, schedule: Q01DX001 (ip), vehicle: saline with Tween-80 99 % of control | dose: 400.0 mg/kg/injection, schedule: Q01DX001 (ip), vehicle: saline with Tween-80 100 % of control

COc1cc(C=O)c(C=O)cc1OC
inactive: dose: 25.0 mg/kg/injection, schedule: Q04DX003 (ip), vehicle: saline with Tween-80 100 % of control

O=C1c2ccccc2C(=O)N1Cc1ccc(Cl)cc1[N+](=O)[O-]
inactive: [1] 103 % of control | [2] 109 % of control | [3] 98 % of control

O=C(O)c1cc(-c2cccc3ccccc23)nc2cc3ccccc3cc12
inactive: [4] 106 % of control and 94 % of control | [5] 100 % of control | [6] 102 % of control | dose: 400.0 mg/kg/injection, schedule: Q01DX009 (ip), vehicle: saline with Tween-80 118 % of control

CCOC(=O)C1Cc2nc(-c3ccccc3)ncc2C1=O (configuration not stated)
inactive: [7] 107 % of control | [8] 107 % of control | [4] 101 % of control

OCC1=CC(O)C2C=COC(C3OC(CO)C(O)C(O)C3O)C12 (configuration not stated)
inactive: dose: 60.0 mg/kg/injection, schedule: Q01DX005 (ip), vehicle: saline 103 % of control | dose: 120.0 mg/kg/injection, schedule: Q01DX005 (ip), vehicle: saline 102 % of control | dose: 240.0 mg/kg/injection, schedule: Q01DX005 (ip), vehicle: saline 100 % of control

N#CC1CC2OC1CC(=O)C2(O)c1occc(=O)c1O (configuration not stated)
inactive: [4] 100 % of control | [5] 107 % of control | [6] 105 % of control

Nc1ncnc2c1ncn2C1OC(COC2C(CO)OC(OC(C(=O)O)C(O)C(OP(=O)(O)O)C(O)C(=O)O)C(O)C2O)C(O)C1O (configuration not stated)
inactive: dose: 0.25 mg/kg/injection, schedule: Q01DX009 (ip), vehicle: saline 96 % of control | dose: 0.5 mg/kg/injection, schedule: Q01DX009 (ip), vehicle: saline 105 % of control | dose: 1.0 mg/kg/injection, schedule: Q01DX009 (ip), vehicle: saline 96 % of control

CC(=O)C1C(=O)C(=O)N(Cc2ccccc2)C1=O (configuration not stated)
inactive: [9] 96 % of control | [10] 114 % of control | dose: 200.0 mg/kg/injection, schedule: Q01DX009 (ip), vehicle: Klucel (hydroxypropylcellulose) (HPC) 100 % of control

O=C(NC1CCOC1=O)c1ccc(N=C=S)cc1 (configuration not stated)
inactive: dose: 25.0 mg/kg/injection, schedule: Q04DX003 (ip), vehicle: Klucel (hydroxypropylcellulose) (HPC) 104 % of control | dose: 50.0 mg/kg/injection, schedule: Q04DX003 (ip), vehicle: Klucel (hydroxypropylcellulose) (HPC) 107 % of control | dose: 100.0 mg/kg/injection, schedule: Q04DX003 (ip), vehicle: Klucel (hydroxypropylcellulose) (HPC) 101 % of control and 106 % of control

CCOC(=O)CN=NNc1ccc([N+](=O)[O-])cc1
inactive: dose: 100.0 mg/kg/injection, schedule: Q01DX001 (ip), vehicle: Klucel (hydroxypropylcellulose) (HPC) 106 % of control | dose: 200.0 mg/kg/injection, schedule: Q01DX001 (ip), vehicle: Klucel (hydroxypropylcellulose) (HPC) 109 % of control | dose: 400.0 mg/kg/injection, schedule: Q01DX001 (ip), vehicle: Klucel (hydroxypropylcellulose) (HPC) 109 % of control

CC(=O)Nc1cc(F)c2c(c1F)Cc1cc(F)ccc1-2
inactive: [5] 100 % of control | dose: 100.0 mg/kg/injection, schedule: Q04DX003 (ip), vehicle: saline with Tween-80 100 % of control | [6] 90 % of control | dose: 200.0 mg/kg/injection, schedule: Q04DX003 (ip), vehicle: saline with Tween-80 100 % of control | dose: 400.0 mg/kg/injection, schedule: Q04DX003 (ip), vehicle: saline with Tween-80 104 % of control

CC1=CC(C)(C)Nc2ccc(CSc3ccccc3)cc21
inactive: dose: 50.0 mg/kg/injection, schedule: Q01DX009 (ip), vehicle: DMSO 111 % of control | [4] 104 % of control | [5] 110 % of control | [6] 96 % of control

CC(C)(C)/[N+]([O-])=C/C1(C2(/C=[N+](\[O-])C(C)(C)C)Cc3ccccc3C2=O)Cc2ccccc2C1=O (configuration not stated)
inactive: dose: 60.0 mg/kg/injection, schedule: Q01DX005 (ip), vehicle: saline with Tween-80 101 % of control | dose: 120.0 mg/kg/injection, schedule: Q01DX005 (ip), vehicle: saline with Tween-80 105 % of control | dose: 240.0 mg/kg/injection, schedule: Q01DX005 (ip), vehicle: saline with Tween-80 103 % of control

Cc1cc(=O)[nH]c(NNC(=O)c2ccc(Cl)cc2)n1
inactive: dose: 25.0 mg/kg/injection, schedule: Q01DX009 (ip), vehicle: distilled water + Tween-80 93 % of control | dose: 50.0 mg/kg/injection, schedule: Q01DX009 (ip), vehicle: distilled water + Tween-80 86 % of control | dose: 100.0 mg/kg/injection, schedule: Q01DX009 (ip), vehicle: distilled water + Tween-80 93 % of control | dose: 200.0 mg/kg/injection, schedule: Q01DX009 (ip), vehicle: distilled water + Tween-80 89 % of control | dose: 400.0 mg/kg/injection, schedule: Q01DX009 (ip), vehicle: distilled water + Tween-80 101 % of control

CC1=NC(=O)CC2=C1C(C)N(Cc1ccccc1)C2=O (configuration not stated)
inactive: dose: 50.0 mg/kg/injection, schedule: Q01DX009 (ip), vehicle: saline 98 % of control | dose: 100.0 mg/kg/injection, schedule: Q01DX009 (ip), vehicle: saline 94 % of control | dose: 200.0 mg/kg/injection, schedule: Q01DX009 (ip), vehicle: saline 99 % of control

O=C(OC12CCCCC1C1(CCCCC1)N=N2)c1ccccc1 (configuration not stated)
inactive: [7] 105 % of control | [8] 99 % of control | [4] 111 % of control | [5] 99 % of control | [6] 97 % of control

CCCCCCCCCCCC(=O)CCCCC
inactive: dose: 100.0 mg/kg/injection, schedule: Q01DX009 (ip), vehicle: other 90 % of control | dose: 200.0 mg/kg/injection, schedule: Q01DX009 (ip), vehicle: other 100 % of control | dose: 400.0 mg/kg/injection, schedule: Q01DX009 (ip), vehicle: other 104 % of control

CCNC(=O)c1nnn2c1nc(N)c1cc(Cl)ccc12
inactive: dose: 12.5 mg/kg/injection, schedule: Q01DX005 (ip), vehicle: Klucel (hydroxypropylcellulose) (HPC) 96 % of control | dose: 25.0 mg/kg/injection, schedule: Q01DX005 (ip), vehicle: Klucel (hydroxypropylcellulose) (HPC) 96 % of control | [1] 95 % of control | [2] 94 % of control | [3] 88 % of control

Cc1nnc2sc3c(Cl)c4nn5c(C)nnc5sc4c(Cl)c3nn12
inactive: dose: 0.78 mg/kg/injection, schedule: Q01DX009 (ip), vehicle: saline with Tween-80 94 % of control | dose: 1.56 mg/kg/injection, schedule: Q01DX009 (ip), vehicle: saline with Tween-80 97 % of control | dose: 3.13 mg/kg/injection, schedule: Q01DX009 (ip), vehicle: saline with Tween-80 92 % of control

O=C(CN1CCN(CCO)CC1)N1c2ccccc2Sc2ccc(C(F)(F)F)cc21
inactive: dose: 100.0 mg/kg/injection, schedule: Q04DX002 (ip), vehicle: saline 101 % of control | dose: 200.0 mg/kg/injection, schedule: Q04DX002 (ip), vehicle: saline 90 % of control

CCCOc1c(C)cc(C(=O)CCN2CCOCC2)cc1Cl
inactive: [4] 113 % of control | [5] 112 % of control | [6] 99 % of control

OCC1OC(n2cnc3c(NO)ncnc32)CC1O (configuration not stated)
inactive: dose: 12.5 mg/kg/injection, schedule: Q01DX009 (ip), vehicle: Klucel (hydroxypropylcellulose) (HPC) 100 % of control | dose: 25.0 mg/kg/injection, schedule: Q01DX009 (ip), vehicle: Klucel (hydroxypropylcellulose) (HPC) 112 % of control | [9] 100 % of control | [10] 100 % of control
